How the values were obtained:
wild-type CysLT1R = biological target: T1, wild-type CysLT1R (Homo sapiens, UniProt Q9Y271); experiment: IP1 production assay, antagonist mode, co-stimulation with EC80 LTD4; type: cell-based
T1 construct: expressed in transfected cells; host or cells: HEK293 (ATCC CRL-1573), transient transfection with Lipofectamine 3000
T1 sequence (Q9Y271 1-337): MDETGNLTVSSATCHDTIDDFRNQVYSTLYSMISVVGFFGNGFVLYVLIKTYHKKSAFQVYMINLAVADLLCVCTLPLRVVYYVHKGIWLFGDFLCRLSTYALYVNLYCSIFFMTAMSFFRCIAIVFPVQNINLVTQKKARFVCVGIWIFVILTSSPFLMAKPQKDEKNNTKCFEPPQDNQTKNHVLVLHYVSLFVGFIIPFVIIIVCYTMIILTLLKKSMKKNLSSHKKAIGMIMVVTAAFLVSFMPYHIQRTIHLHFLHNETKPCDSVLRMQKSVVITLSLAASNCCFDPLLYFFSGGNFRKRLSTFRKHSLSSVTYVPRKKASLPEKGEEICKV
Experimental: (§1) For this assay, we used the Cisbio IP-One kit as previously described. […] At 48 h post-transfection, the media was removed and the cells were washed with fresh Hank’s Balanced Salt Solution (HBSS). […] After compound stimulation, the cells were incubated for 1 h at 37 °C and stimulated with IP1-D2 and Ab-Crypt reagents in Lysis Buffer. The cells were then incubated at room temperature for an additional hour. […] Normalized data were plotted using either the three-parameter or four-parameter EC50/IC50 fits of GraphPad Prism 8 (San Diego). […] Data represent the means ± SEM of at least three independent experiments performed in quadruplicate.

wild-type CysLT2R = biological target: T2, wild-type CysLT2R (Homo sapiens, UniProt Q9NS75); experiment: as above; type: cell-based; details: for inhibition at 30 µM: HEK293, compound 30 µM, LTD4 at EC80, HEK293, wild-type CysLT2R, read-out: inhibition of LTD4-induced IP1 production, single-concentration screen; for Emax: HEK293, read-out: CysLT2R (LTD4) % Max Inhibition ± SEM
T2 construct: expressed in transfected cells; host or cells: HEK293 (ATCC CRL-1573), transient transfection with Lipofectamine 3000
T2 sequence (Q9NS75 1-346): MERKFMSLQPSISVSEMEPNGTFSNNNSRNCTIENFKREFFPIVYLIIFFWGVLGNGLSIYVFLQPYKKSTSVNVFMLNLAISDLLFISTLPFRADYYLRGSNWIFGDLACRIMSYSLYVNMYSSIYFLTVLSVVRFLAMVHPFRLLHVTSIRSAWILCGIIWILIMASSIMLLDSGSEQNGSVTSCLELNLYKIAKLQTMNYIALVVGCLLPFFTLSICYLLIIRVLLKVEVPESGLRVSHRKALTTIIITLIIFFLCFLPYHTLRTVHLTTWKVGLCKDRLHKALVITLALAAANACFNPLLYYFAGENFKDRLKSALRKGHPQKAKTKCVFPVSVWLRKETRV
Experimental: as §1

| Structure (SMILES) | remaining activity at 30 µM (wild-type CysLT1R) [%] | remaining activity at 30 µM (wild-type CysLT2R) [%] | inhibition at 30 µM (wild-type CysLT2R) [%] | Emax (wild-type CysLT2R) [%] | inhibition at 30 µM (wild-type CysLT1R; HEK293, compound 30 µM, LTD4 at EC80, HEK293, wild-type CysLT1R, read-out: inhibition of LTD4-induced IP1 production, single-concentration screen) [%] | Emax (wild-type CysLT1R; HEK293, read-out: CysLT1R (LTD4) % Max Inhibition ± SEM) [%] |
| --- | --- | --- | --- | --- | --- | --- |
| O=C(O)CNC(=O)c1ccc(NC(=O)CCc2cccc(F)c2F)cc1 [BRI-12441] | 88.3 | 70.9 | – | – | – | – |
| CCN(CC)C(=O)c1ccc(C(=O)OCc2cc(C(C)=O)no2)cc1 [BRI-12434] | 57.6 | 62 | – | – | – | – |
| O=C(O)c1c(F)cccc1NS(=O)(=O)N1CCc2ccccc2C1 [BRI-12304] | 83.8 | 106 | – | – | – | – |
| Cc1ccc(C(=O)Nc2ccc(C(=O)NCC(=O)O)cc2)c(O)c1 [BRI-12428] | 90.3 | 59.5 | – | – | – | – |
| O=C(O)C1CN(C(=O)Nc2cc(Br)ccn2)CCO1 (stereo not shown) [BRI-12436] | 93.9 | 67.5 | – | – | – | – |
| CC(C)NC(=O)Nc1ccc(C(=O)Nc2ccc(OCC(=O)O)c(Cl)c2)cc1 [BRI-12420] | 91.7 | 64.2 | – | – | – | – |
| O=C(O)CC(CNS(=O)(=O)c1ccc(Oc2ccc(Cl)cc2)cc1)C(=O)O (stereo not shown) [BRI-12421] | 82.6 | 57.3 | – | – | – | – |
| O=C(O)CCNC(=O)c1nccnc1C(=O)Nc1ccc(Cl)cc1 [BRI-12465] | 84.7 | 59.9 | – | – | – | – |
| O=C(O)CNC(=O)c1ccc(NC(=O)c2cnc3ccccc3c2)cc1 [BRI-12440] | 95.2 | 75 | – | – | – | – |
| CN(CCCc1cc(-c2ccc(F)cc2)n[nH]1)S(=O)(=O)c1[nH]ncc1C(=O)O [BRI-12431] | 90.9 | 63.2 | – | – | – | – |
| C=C1c2ccccc2C(=O)N1CCC(=O)Nc1cc(C(N)=O)cc(C(N)=O)c1 [BRI-12353] | 83.4 | 96.8 | – | – | – | – |
| O=C(Nc1ccc2c(c1)COC2)N1CCCCC1c1cn[nH]c1 (stereo not shown) [BRI-12312] | 77.4 | 87.2 | – | – | – | – |
| O=C(O)CNC(=O)c1ccc(NS(=O)(=O)c2csc(-c3ccc(Cl)cc3)n2)cc1 [BRI-12433] | 76.2 | 62.7 | – | – | – | – |
| O=C(c1cc(C(F)(F)F)n[nH]1)N1CCC2(C1)CN(C(=O)[C@@H]1C[C@H]1c1cccnc1)C2 [BRI-12459] | 77.6 | 69.1 | – | – | – | – |
| NC(=O)CN1CCN(C(=O)c2ccccc2NC(=O)c2ccc(Cl)cc2)CC1=O [BRI-12454] | 77.4 | 48.4 | ≥ 50 | 6 ± 10 | – | – |
| O=C(O)CC1CN(S(=O)(=O)C=Cc2ccc(Cl)cc2)c2ccccc21 (stereo not shown) [BRI-12449] | 67.5 | 67.8 | – | – | – | – |
| CCc1ncnc(N[C@H]2C[C@@H](CNC(=O)c3ccn4cc(C)nc4c3)C2)c1F [BRI-12458] | 51.3 | 40.9 | ≥ 50 | 13 ± 10 | ≥ 50 | 38 ± 16 |
| O=C1COc2ccc(C(=O)Cn3cnc4sc5c(c4c3=O)CCC5)cc2N1 [BRI-12335] | 73.8 | 74.8 | – | – | – | – |
| O=C(Cc1cccc(OCc2cccnc2)c1)Nc1cccc(-n2ccc(C(=O)O)n2)c1 [BRI-12414] | 81.8 | 84.9 | – | – | – | – |
| O=C(O)c1cccc(NC(=O)c2ccc(N3CCNC3=O)cc2)c1 [BRI-12457] | 83.8 | 67.4 | – | – | – | – |
| CC(=O)c1cc2c(cc1NC(=O)COc1ccc(Cl)cc1C(N)=O)OCO2 [BRI-12343] | 73.7 | 88.9 | – | – | – | – |
| NC(=O)c1ccc(NC(=O)CCCCC2SCC3NC(=O)NC32)cc1 (stereo not shown) [BRI-12301] | 91.5 | 88.1 | – | – | – | – |

| Structure (SMILES) | remaining activity at 30 µM (wild-type CysLT1R) [%] | remaining activity at 30 µM (wild-type CysLT2R) [%] | inhibition at 30 µM (wild-type CysLT2R) [%] | Emax (wild-type CysLT2R) [%] | inhibition at 30 µM (wild-type CysLT1R; HEK293, compound 30 µM, LTD4 at EC80, HEK293, wild-type CysLT1R, read-out: inhibition of LTD4-induced IP1 production, single-concentration screen) [%] | Emax (wild-type CysLT1R; HEK293, read-out: CysLT1R (LTD4) % Max Inhibition ± SEM) [%] |
| --- | --- | --- | --- | --- | --- | --- |
| O=C(NCCc1c[nH]c2cc(Cl)ccc12)c1ccc(NC2=NS(=O)(=O)c3ccccc32)cc1 [BRI-12478] | 82.9 | 65.9 | – | – | – | – |
| O=C(O)CC(NC(=O)c1ccc2[nH]ccc2c1)c1ccccc1 (stereo not shown) [BRI-12361] | 83.4 | 91.3 | – | – | – | – |
| CC(C)(C)n1nnc(COC(=O)C2OCCc3ccccc32)n1 (stereo not shown) [BRI-12445] | 86.6 | 67.7 | – | – | – | – |
| COc1ccc(C2=NN(C(=O)CCC(=O)O)C(c3cccs3)C2)c(O)c1 (stereo not shown) [BRI-12316] | 91 | 90 | – | – | – | – |
| Cc1cnnn1-c1ccc(NC(=O)c2cccc(NC(=O)CCCc3cccs3)c2)cc1 [BRI-12444] | 96.1 | 68.2 | – | – | – | – |
| O=C(O)CCC1CCCCN1C(=O)Cc1c[nH]c2cc(F)ccc12 (stereo not shown) [BRI-12310] | 77.3 | 91.6 | – | – | – | – |
| Cc1onc(N)c1S(=O)(=O)Nc1ccc(N2CCCC2)cc1C(=O)O [BRI-12425] | 84.2 | 79.8 | – | – | – | – |
| Cn1c(Cn2cc(-c3nnco3)ccc2=O)nc2cc(Cl)ccc21 [BRI-12337] | 72 | 91.3 | – | – | – | – |
| O=C(O)CCN(CC1CCCO1)C(=O)c1cc(-c2ccccc2Cl)[nH]n1 (stereo not shown) [BRI-12320] | 81.4 | 90.5 | – | – | – | – |
| O=C(O)CCC1CCCCN1C(=O)C1CCc2ncncc2C1 (stereo not shown) [BRI-12302] | 87.4 | 70 | – | – | – | – |
| CC(CNS(=O)(=O)c1csc(-c2ccc(F)cc2)n1)C(=O)O (stereo not shown) [BRI-12464] | 103 | 60.8 | – | – | – | – |
| CCOc1ccc(NC(=O)c2cccn3nnnc23)c(C(N)=O)c1 [BRI-12469] | 80.7 | 52.8 | – | – | – | – |
| NC(=O)Nc1ccc(C(=O)NCc2c(C(=O)O)oc3ccccc23)cc1 [BRI-12447] | 85.5 | 52.9 | – | – | – | – |
| Cc1ccc2ncc(C(=O)NC3CN(C(=O)c4cc(C(N)=O)cs4)C3)n2c1 [BRI-12466] | 67.7 | 39 | ≥ 50 | 12 ± 6 | – | – |
| CN(CCOc1ccc(OCc2ccccc2)cc1)C(=O)c1cc(=O)[nH]c2ccc(F)cc12 [BRI-12404] | 83.8 | 67.3 | – | – | – | – |
| O=C1COc2cc(C(=O)N3CCC(c4cc5ccccc5[nH]4)CC3)c(Cl)cc2N1 [BRI-12416] | 70.8 | 80.4 | – | – | – | – |
| O=C(Nc1ccc(C(=O)NC2CCCCC2)c(O)c1)c1ccc(F)c(S(=O)(=O)NC2CC2)c1 [BRI-12446] | 72.4 | 67.7 | – | – | – | – |
| O=C(NCC(F)(F)F)c1cccc(NC(=O)C2C3C=CC(C3)C2C(=O)O)c1 (stereo not shown) [BRI-12346] | 66.6 | 90.6 | – | – | – | – |
| Cc1nonc1CC(=O)NC1(CNC(=O)c2cc3occc3s2)CCC1 [BRI-12463] | 81.2 | 57.8 | – | – | – | – |
| O=C(Cn1ccc(=O)[nH]c1=O)Nc1cccc(C=Cc2ccccn2)c1 [BRI-12354] | 72.7 | 92.8 | – | – | – | – |
| O=C(NCC(O)c1cccc(OCc2ccccc2)c1)c1cc(=O)[nH]c2ccc(F)cc12 (stereo not shown) [BRI-12409] | 73.3 | 62.3 | – | – | – | – |

— paper PMC7761830, “Structure-Based Virtual Screening of Ultra-Large Library Yields Potent Antagonists for a Lipid GPCR” (Biomolecules, 2020)
